# Results reported in paper PMC11761247, “Antioxidant, Anti-α-Glucosidase, Anti-Tyrosinase, and Anti-Acetylcholinesterase Components from Stem of Rhamnus formosana with Molecular Docking Study” (Antioxidants, 2024).
# Where two headings read alike, the source gives them in different places.
# Experiments:
# [1] = Ferric reducing antioxidant power (FRAP)
# Description: The analysis was performed using the published method. The working solution was prepared by mixing acetate buffer (pH 3.6), ferric chloride solution (20 mM), and TPTZ solution (10 mM TPTZ in 40 mM HCl) in a 10:1:1 ratio. Then, 900 µL of this solution was warmed to 37 °C and mixed with 100 µL of the diluted sample, blank, or standard in a microcentrifuge tube. The tubes were vortexed and incubated in a dry bath at 37 °C for 40 min. Absorbance was measured at 593 nm. The standard curve was linear from 0 to 100 mM Trolox, and results were expressed as mM TE/g dry weight.
# [2] = Superoxide radical scavenging activity (NBT/PMS/NADH); settings: for EC50: isolated compounds (Table 5), read-out: SC50 Superoxide
# Description: The superoxide scavenging activity assay was performed based on the published method. The superoxide radical was prepared in a 16 mM Tris-HCl buffer (pH 8.0) containing 50 µL of NBT (300 µM), 50 µL of PMS (120 µM), and 50 µL of different concentrations of the tested sample. The reaction was initiated by adding 50 µL of the NADH (468 µM) solution to the mixture and incubated at room temperature for 5 min. The activity of the samples was determined by calculating the decrease in absorbance measured at 560 nm by the following equation:(3) Scavenging rate (%)=(OD0−OD1)/OD0×100 where OD0 is absorbance of the control and OD1 is that of the tested sample.
# [3] = ABTS radical scavenging activity; settings: for EC50: isolated compounds (Table 5), read-out: SC50 ABTS
# Description: The analysis of ABTS was performed according to the previously published method. The ABTS solution (28 mM) was mixed with […] solution (9.6 mM) in a 1:1 ratio (v/v) and allowed to react in the dark at room temperature for 16 h to generate the ABTS radical solution. The ABTS radical solution was then diluted with EtOH until the absorbance at 740 nm reached 0.70 ± 0.02. The tested samples were dissolved in DMSO to prepare stock solutions, which were subsequently diluted to the desired concentrations with EtOH. In a 96-well plate, 190 μL of the diluted ABTS radical solution was mixed with 10 μL of each diluted sample solution. The mixture was allowed to react in the dark at room temperature for 6 min. The absorbance at 740 nm was then measured using an ELISA reader. The ABTS radical scavenging activity was calculated by the following equation:(2) Scavenging rate (%)=(OD0−OD1)/OD0×100 where OD0 is absorbance of the control and OD1 is that of the tested sample.
# [4] = DPPH free radical scavenging activity; settings: for EC50: isolated compounds (Table 5), read-out: SC50 DPPH
# Description: DPPH analysis was performed according to the previously published procedure. A 400 μM DPPH radical solution was prepared in EtOH. The tested samples were dissolved in DMSO to prepare stock solutions, which were then diluted to the desired concentrations with EtOH. In a 96-well plate, 100 μL of each diluted tested sample solution was mixed with 100 μL of the DPPH radical solution (200 μM). The mixture was allowed to react in the dark at room temperature for 30 min. After the reaction, the absorbance at 520 nm was measured using an ELISA reader. DPPH radical scavenging activity was calculated by the following equation:(1) Scavenging rate (%)=(OD0−OD1)/OD0 where OD0 is absorbance of the control and OD 1 is that of the tested sample.
# [5] = target: T1, AChE (Electrophorus electricus, UniProt O42275); test: biochemical
# T1 construct: purchased Sigma-Aldrich
# T1 sequence (O42275 24-633): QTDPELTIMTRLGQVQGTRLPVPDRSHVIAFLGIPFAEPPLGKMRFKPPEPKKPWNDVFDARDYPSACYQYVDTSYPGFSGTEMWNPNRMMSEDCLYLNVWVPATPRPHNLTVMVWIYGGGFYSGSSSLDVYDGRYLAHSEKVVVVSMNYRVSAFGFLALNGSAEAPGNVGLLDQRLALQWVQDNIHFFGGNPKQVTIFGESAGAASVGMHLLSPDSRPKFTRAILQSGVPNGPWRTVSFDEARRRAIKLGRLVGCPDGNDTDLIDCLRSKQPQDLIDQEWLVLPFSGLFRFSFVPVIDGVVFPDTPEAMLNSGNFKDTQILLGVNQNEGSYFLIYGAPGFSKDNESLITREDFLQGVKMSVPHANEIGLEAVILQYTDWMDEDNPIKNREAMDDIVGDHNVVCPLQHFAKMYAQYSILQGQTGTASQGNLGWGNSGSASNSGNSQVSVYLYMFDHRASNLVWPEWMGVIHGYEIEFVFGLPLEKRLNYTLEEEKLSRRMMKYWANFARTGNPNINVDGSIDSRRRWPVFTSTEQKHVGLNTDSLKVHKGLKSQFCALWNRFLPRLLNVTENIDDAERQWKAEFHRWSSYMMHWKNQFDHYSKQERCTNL
# Description: Determination of AChE inhibition was conducted based on the reported method with slight modifications. Sodium phosphate buffer (0.1 M, pH 8.0, 140 µL), test compound solution (20 µL), enzyme solution (15 µL of AChE at 0.2 units/mL), and DTNB (15 mM, 10 µL) were mixed and incubated for 10 min at room temperature. The reaction was then initiated by adding 10 µL of the substrate (AChI, 15 mM).
# [6] = target: T2, α-glucosidase (Saccharomyces cerevisiae, UniProt P53341); test: α-Glucosidase inhibitory activity (p-NPG substrate); assay type: biochemical
# T2 construct: purchased Sigma-Aldrich
# T2 sequence (P53341 whole entry): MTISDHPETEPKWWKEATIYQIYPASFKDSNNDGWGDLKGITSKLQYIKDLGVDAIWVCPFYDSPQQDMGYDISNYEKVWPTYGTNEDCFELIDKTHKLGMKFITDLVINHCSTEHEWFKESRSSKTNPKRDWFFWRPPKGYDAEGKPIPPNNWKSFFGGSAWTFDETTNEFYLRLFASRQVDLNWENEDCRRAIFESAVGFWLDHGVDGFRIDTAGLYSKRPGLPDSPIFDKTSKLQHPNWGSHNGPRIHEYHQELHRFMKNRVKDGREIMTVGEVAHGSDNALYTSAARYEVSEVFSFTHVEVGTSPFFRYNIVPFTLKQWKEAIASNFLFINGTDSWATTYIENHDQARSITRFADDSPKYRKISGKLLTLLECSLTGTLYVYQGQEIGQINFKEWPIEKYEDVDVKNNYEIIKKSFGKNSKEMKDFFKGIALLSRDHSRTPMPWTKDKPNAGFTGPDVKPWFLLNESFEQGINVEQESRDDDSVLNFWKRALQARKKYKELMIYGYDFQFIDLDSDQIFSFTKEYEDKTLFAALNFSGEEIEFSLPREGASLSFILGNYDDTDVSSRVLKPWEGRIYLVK
# [7] = isolated compounds (Table 5), Trolox equivalents
# [8] = solvent extracts, concentration for 50% free radical scavenging
SMILES,"TE FRAP [1, 7] [mM/g]",EC50 [2] [µM],EC50 [3] [µM],EC50 [4] [µM],IC50 [5] [µM],IC50 [6] [µM],other results
"O=c1c(O)c(-c2ccc(O)cc2)oc2cc(O)cc(O)c12 [Kaempferol (1), kaempferol]",1046.16 ± 23.78,271 ± 20.7,15.3 ± 0.94,61.7 ± 7.36,,,"TE FRAP ([1]; isolated compounds (Table 5), Trolox equivalents, listed as kaempferol (1)): 1046.16 ± 23.78 mM/g"
"O=C(/C=C/c1ccc(O)c(O)c1)O[C@@H]1C[C@](O)(C(=O)O)C[C@@H](O)[C@H]1O [Chlorogenic acid, chlorogenic acid, reference compound]",,,,,,,"IC50 ([5]; isolated compounds (Table 6), read-out: IC50 AChE (converted)): 303 ± 25.2 µM; IC50 ([5]; solvent extracts (Table 3), read-out: IC50 AChE (converted)): 496 µM"
"Cc1cc(O)c2c(c1)C(=O)c1cccc(O)c1C2=O [Chrysophanol (4), chrysophanol]",<1,> 200,> 200,> 200,> 400,604 ± 44.8,
"O=c1cc(-c2ccc(O)c(O)c2)oc2cc(O[C@@H]3O[C@H](CO)[C@@H](O)[C@H](O)[C@H]3O)cc(O)c12 [Cynaroside, reference compound]",,20 ± 1.7,,,,,"SC50 Superoxide [2, 8]: 12.03 ± 4.20 µg/mL"
"Cc1cc(C(C)(C)C)c(O)c(C(C)(C)C)c1 [BHT, butylated hydroxytoluene, reference compound]",5712.61 ± 176.27,,37.5 ± 4.31,708 ± 10.8,,,"TE FRAP ([1]; solvent extracts (Table 2), Trolox equivalents in mM per gram of extract): 3196.39 ± 115.26 mM/g; SC50 ABTS [3, 8]: 9.12 ± 1.85 µg/mL; SC50 DPPH [4, 8]: 156.04 ± 14.31 µg/mL"
"Cc1cc(O)c2c(c1)C(=O)c1cc(O)cc(O)c1C2=O [Emodin (3), emodin]",<1,232 ± 15.9,> 200,> 200,77.6 ± 6.28,58.9 ± 3.39,
"O=c1c(O)c(-c2ccc(O)c(O)c2)oc2cc(O)cc(O)c12 [Quercetin (2), quercetin]",1026.73 ± 16.69,85.8 ± 4.76,5.7 ± 0.92,16.1 ± 2.62,,,"TE FRAP ([1]; isolated compounds (Table 5), Trolox equivalents, listed as quercetin (2)): 1026.73 ± 16.69 mM/g"
"COc1cc(O)c2c(c1)C(=O)c1cc(C)cc(O)c1C2=O [Physcion (5), physcion]",<1,> 200,> 200,> 200,76 ± 1.34,> 800,
